Experiments:
[1] = Kinetic inertness: Mn2+ dissociation upon Zn2+ challenge; assay type: physicochemical; details: 0.5 mM Mn2+ (0.167 mM Mn-CBP20), 10 mM Zn(OTf)2, pH 7.4 50 mM Tris/18 mM citrate, 27 °C, monitored by r2 change at 1.4T
Experimental: Figure 2. In vitro assays for collagen binding and kinetic inertness.
To assess kinetic inertness to Mn^2+ release, we evaluated Mn^2+ dissociation kinetics upon challenge of 0.167 mM Mn-CBP20 (0.5 mM Mn^2+) with 10 mM Zn(OTf)2 in the presence of pH 7.4 50 mM Tris/ 18 mM citrate buffer, Figure 2B. The presence of a weak chelator such as citrate is required to maintain homogenous reaction conditions during the course of the measurement, as treatment of Mn-CBP20 with even 1 mol equiv. […] Mn^2+ dissociation was monitored by observing change in r2. Under this set of assay conditions, the r2 value associated with dissociated Mn^2+ (16.3 mM^−1s^−1) is approximately half that of Mn^2+ bound within Mn-CBP20. As positive control, we monitored Mn^2+ dissociation from the kinetically inert complex Mn-CDTA (r2 = 5.9 mM^−1s^−1).

[2] = rats; in words; cited from earlier work
From the text: Whole body PET-CT images recorded 1 and 7 days after [^52Mn]Mn-CBP20 injection are shown in Figure 6A and ex vivo ^52Mn biodistribution data are shown in Figure 6B and 6C and also tabulated in Supplementary Tables 1 and 2. The highest concentration of ^52Mn 1 day after injection is found in the kidneys, consistent with the expected renal elimination of the compound.

half-life (t1/2) of Mn2+ dissociation [1]	Molecule	52Mn uptake in salivary glands relative to other tissues [2]
15.5 h	O=C([O-])CN(CC(=O)[O-])C1CCCCC1N(CC(=O)[O-])CC(=O)[O-].[Mn+2] (centres unmarked) [Mn-CDTA]	–
–	Mn-DPDP	high and persistent ^52Mn uptake in the salivary glands relative to other tissues
